Data from US12251445B2, “Gamma-hydroxybutyrate delivering compounds and processes for making and using them” (Zevra Therapeutics, Inc., priority 2022, dated 2025).

Assay: Pharmacokinetics of GHB in plasma after oral gavage of GHB delivering compounds in rats
Settings: vehicle water, mean conjugate/mean comparator
[1] = molar equivalent of 100 mg/kg NaGHB
[2] = dose equivalent to 80 mg/kg NaGHB

| Structure (SMILES) | % AUC0-4 hr vs study comparator sodium oxybate [1] [%] | % Cmax vs study comparator sodium oxybate [1] [%] | % AUC0-4 hr vs study comparator sodium oxybate [2] [%] | % Cmax vs study comparator sodium oxybate [2] [%] |
| --- | --- | --- | --- | --- |
| O=C1CCCO1 [GBL] | 27 | 70 | – | – |
| CCOC(=O)OCCCC(=O)O [O-(ethoxycarbonyl)-GHB] | – | – | 54 | 51 |
